According to patent publication US6121322A, “Azulene derivatives” (Boehringer Mannheim GmbH, priority 1997, dated 2000):
Converted amounts (≈) assume the structure as drawn. “Also recorded” adds a separate entry of the source.

Key:
[1] = tested on: TNFα synthesis; assay: TNFα Synthesis Assay (LPS-stimulated human leukocytes, TNFα in supernatant by enzyme immunoassay); format: cell-based; conditions: Leukocyte, 37° C., 2 hours, read-out: TNFα synthesis inhibition in vitro IC50
Experimental: Experimental Procedure in Vitro
Human leukocytes are obtained from heparinized full blood over a Ficol gradient, washed with RPMI 1640 medium having the prescribed additives and adjusted in the same medium to a cell count of 1×10^6 cells/ml. 20 μl of the substance to be tested in 10-fold concentration, 20 μl of an LPS solution of 4 μg/ml and 160 μl of the adjusted cell suspension are incubated in the individual wells of a 96 well culture plate at 37° C. for 2 hours. The experiments are carried out as double determinations. At the end of the incubation period the plates are carefully shaken and centrifuged. Two samples each of 50 μl are withdrawn from the clear culture supernatant for the analysis of TNFα.
Analysis of TNFα in the Cell Cupernatant by Enzyme Immunoassay
Nunc-Maxisorb plates are coated with a mouse-anti-human-TNFα antibody (1 μg/ml, 50 μl/well, Dianova/Pharmingen 18631D, carbonate buffer pH 9.5) and free binding capacity is saturated with a gelatine- and serum albumin-containing blocking buffer. After washing the plates there are pipetted in double determination in each case 25 μl of the analyte as well as on each plate a series of standard concentrations. For the detection of the analyte, 25 μl of a biotinylated mouse-anti-human-TNFα antibody ([…] 25 μl/well, Dianova/Pharmingen 18642D, blocking buffer) are added and the plates are shaken at room temperature for 2 hours. After washing incubation is carried out with streptavidin-alkaline phosphatase conjugate (50 μl/well) and finally with 4-nitrophenyl phosphate and evaluation is carried out on a photometer. The concentrations of the measured samples are determined using a computer program based on a calibration curve from the co-determined standard concentrations.
Determination of the IC50
The percentage inhibition for the individual sample is calculated by comparing the TNFα concentration obtained for the measured samples with the non-inhibited samples. The IC50 is determined by computer from the concentration relationship of the inhibitor value.

[2] = in vivo; cited from earlier work
[3] = tested on: animal models for multiple sclerosis; conditions: animal experiments; cited from earlier work
[4] = tested on: TNFα; conditions: in vivo; cited from earlier work
[5] = tested on: PDE4; conditions: cited from earlier work
[6] = tested on: TNFα; conditions: cited from earlier work
[7] = tested on: HIV; conditions: cited from earlier work

SMILES | IC50 [1] [µg/mL] | side effects [2] | further results
CCOC(=O)c1c2ccc(CC(=O)NOC(=O)N3CCN(C)CC3)ccc-2c(C(=O)OCC)c1N [Example 31, Diethyl 2-amino-6-{[(4-methyl-piperazino)-carbonyloxy-carbamoyl]-methyl}-azulene-1,3-dicarboxylate] | 0.1 (≈ 0.206 µM) |  | 
CCOC(=O)c1c2ccc(CC(=O)NOCCN3CCOCC3)ccc-2c(C(=O)OCC)c1N [Example 20] | 0.05 (≈ 0.106 µM) |  | 
CCOC(=O)c1c2ccc(CC(=O)NOCC(=O)N(CCOC)CCOC)ccc-2c(C(=O)OCC)c1N [Example 4, Diethyl 2-amino-6-{[2-oxo-2-(N,N-bis-2-methoxyethyl-amino)-ethoxycarbamoyl]-methyl}-azulene-1,3-dicarboxylate] | 0.03 (≈ 0.0562 µM) |  | 
COc1ccc(C2CNC(=O)C2)cc1OC1CCCC1 (stereo not shown) [rolipram] |  | emetic activity; also recorded: massive side effects | activity in animal models for multiple sclerosis [3]: very good activity; inhibition of the synthesis of TNFα [4]: inhibition of the synthesis of TNFα in vitro and in vivo; inhibition of PDE4 [5]: inhibits PDE4
O=C1CCC(N2C(=O)c3ccccc3C2=O)C(=O)N1 (stereo not shown) [Thalidomide] |  | teratogenic side effects | TNFα blockade [6]: weak TNFα blockade; suppression of the proliferation of HIV [7]: supresses the proliferation of HIV
